Experiments:
[1] = target: T1, enzyme FAAH (Fatty Acid Amido Hydrolase) (Mus musculus, UniProt O08914); assay: radioenzymatic test of FAAH inhibition: hydrolysis of ((1-3H)ethanolamine)-anandamide by mouse brain membrane homogenates; format: biochemical; settings: mouse brain membrane homogenate, 10 μM anandamide, 15 minutes at 25° C.; read-out: IC50 (concentration which inhibits the control enzymatic activity of FAAH by 50%)
T1 construct: The membrane homogenates are prepared at the time of use by homogenization of the tissues; from tissue; host or cells: mouse brain (minus the cerebellum), membrane homogenate
T1 sequence (O08914 1-579): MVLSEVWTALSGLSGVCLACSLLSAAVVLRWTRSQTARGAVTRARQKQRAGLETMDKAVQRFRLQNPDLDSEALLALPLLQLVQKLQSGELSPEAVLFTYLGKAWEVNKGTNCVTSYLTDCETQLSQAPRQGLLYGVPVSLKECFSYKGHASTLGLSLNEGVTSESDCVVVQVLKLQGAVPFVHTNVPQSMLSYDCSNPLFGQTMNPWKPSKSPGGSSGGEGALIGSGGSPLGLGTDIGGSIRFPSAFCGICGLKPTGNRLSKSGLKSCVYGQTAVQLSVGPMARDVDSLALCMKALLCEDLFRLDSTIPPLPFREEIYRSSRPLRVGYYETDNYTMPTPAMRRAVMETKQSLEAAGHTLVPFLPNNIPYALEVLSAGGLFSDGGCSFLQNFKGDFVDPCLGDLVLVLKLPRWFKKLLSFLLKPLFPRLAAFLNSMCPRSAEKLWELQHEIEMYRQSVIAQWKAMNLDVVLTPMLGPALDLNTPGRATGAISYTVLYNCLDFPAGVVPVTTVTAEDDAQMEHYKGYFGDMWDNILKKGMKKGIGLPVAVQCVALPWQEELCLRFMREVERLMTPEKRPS
Method: The compounds of the invention have formed the subject of pharmacological trials which make it possible to determine their inhibitory effect on the enzyme FAAH (Fatty Acid Amido Hydrolase).
Thus, mouse brains (minus the cerebellum) are removed and stored at −80° C. The membrane homogenates are prepared at the time of use by homogenization of the tissues with a Polytron in a 10 mM Tris-HCl buffer (pH 8.0) comprising 150 mM NaCl and 1 mM EDTA. The enzymatic reaction is subsequently carried out in 70 μl of buffer comprising bovine serum albumin free from fatty acids (1 mg/ml). The test compounds, at various concentrations, the ((1-^3H)ethanolamine)-anandamide (specific activity of 15-20 Ci/mmol), diluted to 10 μM with non-radiolabelled anandamide, and the membrane preparation (400 μg of frozen tissue per assay) are successively added. After 15 minutes at 25° C., the enzymatic reaction is halted by addition of 140 μl of chloroform/methanol (2:1). The mixture is stirred for 10 minutes and is then centrifuged at 3500 g for 15 minutes. An aliquot (30 μl) of the aqueous phase comprising the (1-^3H)ethanolamine is counted by liquid scintillation.

male OF1 mice = assay: test for analgesia: abdominal tractions induced by PBQ (phenylbenzoquinone) i.p.; format: in vivo, mouse; settings: 3 mg/kg p.o.
Method: The in vivo activity of the compounds of the invention was evaluated in a test for analgesia.
Thus, the intraperitoneal (i.p.) administration of PBQ (phenylbenzoquinone, 2 mg/kg in a 0.9% sodium chloride solution comprising 5% of ethanol) to male OF1 mice weighing 25 to 30 g causes abdominal tractions, on average 30 twisting or contracting motions during the period from 5 to 15 minutes after injection. The test compounds are administered, orally (p.o.) or intraperitoneally (i.p.) in suspension in 0.5% Tween 80, 60 minutes or 120 minutes before the administration of PBQ. Under these conditions, the most powerful compounds of the invention reduce by 35 to 70% the number of tractions induced by the PBQ, within a range of doses of between 1 and 30 mg/kg.

Row | melting point [°C] | SMILES | other results
1 | 192 to 194 | CNC(=O)COC(=O)N1CCC(n2cnc(-c3ccccc3)c2)CC1 [Compound No. 14, 2-(Methylamino)-2-oxoethyl 4-(4-phenyl-1H-imidazol-1-yl)piperidine-1-carboxylate] | 
2 | 57 to 60 | CNC(=O)COC(=O)N1CCC(O)(c2ccc(Br)cc2)CC1 [Compound No. 32, 2-(Methylamino)-2-oxoethyl 4-(4-bromophenyl)-4-hydroxypiperidine-1-carboxylate] | 
3 | 156 to 158 | CNC(=O)COC(=O)N1CCC(O)(c2ccc(-c3ccc(Cl)c(Cl)c3)cc2)CC1 [Compound No. 40, 2-(Methylamino)-2-oxoethyl 4-(3′,4′-dichlorobiphenyl-4-yl)-4-hydroxypiperidine-1-carboxylate] | IC50 [1]: 98 nM
4 | 150 to 152 | CNC(=O)COC(=O)N1CCC(Cc2ccc3ccccc3c2)CC1 [Compound No. 43, 2-(Methylamino)-2-oxoethyl 4-(naphth-2-ylmethyl)piperidine-1-carboxylate] | 
5 | 126 to 128 | CNC(=O)COC(=O)N1CCC(CCc2nccc3ccccc23)CC1 [Compound No. 74, 2-(Methylamino)-2-oxoethyl 4-(2-(isoquinolin-1-yl)ethyl)-1-piperidinecarboxylate] | 
6 | 118 to 120 | CNC(=O)COC(=O)N1CCC(CCCc2ccc(Cl)cc2)CC1 [Compound No. 83, 2-(Methylamino)-2-oxoethyl 4-[3-(4-chlorophenyl)propyl]piperidine-1-carboxylate] | 
7 | 101 to 103 | CNC(=O)COC(=O)N1CCC(CC#Cc2ccc(Cl)cc2)CC1 [Compound No. 107, 2-(Methylamino)-2-oxoethyl 4-[3-(4-chlorophenyl)prop-2-yn-1-yl]piperidine-1-carboxylate] | 
8 |  | CCOc1ccc(-c2ccc(C3(O)CCN(C(=O)OCC(=O)NC)CC3)cc2)cc1 [compound 39, 2-(methylamino)-2-oxoethyl 4-(4′-ethoxybiphenyl-4-yl)-4-hydroxypiperidine-1-carboxylate] | IC50 [1]: 95 nM
9 | 158 to 159 | NC(=O)COC(=O)N1CCC(Cn2ccc3ccccc32)CC1 [compound 47, 2-amino-2-oxoethyl 4-(1H-indol-1-ylmethyl)piperidine-1-carboxylate] | 
10 |  | CNC(=O)COC(=O)N1CCC(CCc2ccc(Cl)cc2)CC1 [compound 57, 2-(methylamino)-2-oxoethyl 4-[2-(4-chloro-phenyl)ethyl]piperidine-1-carboxylate] | reduction of the number of tractions induced by the PBQ (male OF1 mice; administered 60 minutes before PBQ): 37%; reduction of the number of tractions induced by the PBQ (male OF1 mice; administered 120 minutes before PBQ): 74%

Source: US20070021405A1, “ARYL- AND HETEROARYLPIPERIDINECARBOXYLATE-DERIVATIVES METHODS FOR THEIR PREPARATION AND USE THEREOF AS FATTY ACID AMIDO HYDROLASE ENZYME INHIBITORS” (SANOFI-AVENTIS, priority 2004, published 2007)
